Data taken from US20260028354A1, “TETRAHYDRONAPHTHALENE DERIVATIVES AS ESTROGEN RECEPTOR DEGRADERS” (REGENT OF THE UNIVERSITY OF MICHIGAN, priority 2022, published 2026).
pIC50: −log10 of the molar value. Like-named read-outs stand apart in the source and are kept apart here.

Legend:
[1] = tested on: MCF-7 cells; test: CellTiter-Glo (CTG) cell proliferation assay in MCF-7 cells; assay type: cell-based; conditions: Homo sapiens, MCF7, 144 h, MCF-7 cell proliferation, Day 6
Excerpt: CellTiter-Glo® (CTG) Assays in MCF-7 and T47D Cell Lines.
In vitro Assay: MCF-7 and T47D CTG assay

[2] = molecular target: ER in MCF-7 cells (Homo sapiens (Human), UniProt P03372); test: In-cell Western (ICW) ER degradation assay in MCF-7 cells; assay type: cell-based; conditions: for DC50: MCF-7, ER degradation, read-out: MCF7 DC50
Chain of ER in MCF-7 cells (P03372 whole entry): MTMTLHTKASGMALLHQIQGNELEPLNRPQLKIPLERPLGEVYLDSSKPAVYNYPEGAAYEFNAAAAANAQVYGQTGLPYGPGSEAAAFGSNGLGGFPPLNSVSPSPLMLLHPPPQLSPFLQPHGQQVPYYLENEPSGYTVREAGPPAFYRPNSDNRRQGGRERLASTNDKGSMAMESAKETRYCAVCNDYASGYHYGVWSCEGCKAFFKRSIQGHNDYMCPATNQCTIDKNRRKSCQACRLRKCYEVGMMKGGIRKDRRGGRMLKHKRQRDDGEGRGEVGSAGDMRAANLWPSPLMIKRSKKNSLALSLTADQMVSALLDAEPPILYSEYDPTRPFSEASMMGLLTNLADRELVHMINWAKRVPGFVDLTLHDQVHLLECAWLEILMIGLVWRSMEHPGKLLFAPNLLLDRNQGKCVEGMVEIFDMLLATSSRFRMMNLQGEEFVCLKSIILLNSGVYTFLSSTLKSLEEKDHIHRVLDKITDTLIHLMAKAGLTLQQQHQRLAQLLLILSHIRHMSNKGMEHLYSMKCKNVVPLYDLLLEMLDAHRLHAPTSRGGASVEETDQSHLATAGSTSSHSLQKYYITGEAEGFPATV

[3] = MCF7, read-out: MCF7 Dmax, MCF-7, maximal ER degradation, 16 hrs treatment
[4] = MCF7, MCF-7, maximal ER degradation, 16 hrs treatment, read-out: MCF7 Dmax

Dmax [2, 4]	SMILES	pIC50 [1]	Dmax [2, 3]	DC50 ([2]; 16 hrs treatment)
–	O=C1CC[C@H](N2Cc3c(ccc4c3OCC43CCN(CC4CC5(CCN(c6ccc([C@@H]7c8ccc(O)cc8CC[C@@H]7c7ccccc7)cc6)CC5)C4)CC3)C2=O)C(=O)N1 [Compound A181, (S)-3-(1′-((7-(4-((1R,2S)-6-hydroxy-2-phenyl-1,2,3,4-tetra-hydronaphthalen-1-yl)phenyl)-7-azaspiro[3.5]nonan-2-yl)-methyl)-6-oxo-6,8-dihydro-2H, 7H-spiro[furo[2,3-e]isoindole-3,4′-piperidin]-7-yl)piperidine-2,6-dione]	< 7.00	> 75%	< 1 nM
–	O=C1CC[C@H](N2Cc3cc4c(cc3C2=O)OCC42CCN(CC3CCC4(CC3)CN(c3ccc([C@@H]5c6ccc(O)cc6CC[C@@H]5c5ccccc5)cc3)C4)CC2)C(=O)N1 [Compound A178, (S)-3-(1′-((2-(4-((1R,2S)-6-hydroxy-2-phenyl-1,2,3,4-tetra-hydronaphthalen-1-yl)phenyl)-2-azaspiro[3.5]nonan-7-yl)-methyl)-7-oxo-5,7-dihydro-2H, 6H-spiro[furo[2,3-f]isoindole-3,4′-piperidin]-6-yl)piperidine-2,6-dione]	< 7.00	> 75%	< 1 nM
–	COc1cc(N2CCC(CCN3CCC4(CC3)COc3c4cc(OC)c4c3CN([C@H]3CCC(=O)NC3=O)C4=O)CC2)c(F)cc1[C@@H]1c2ccc(O)cc2CC[C@@H]1c1ccccc1 [Compound A226, (S)-3-(1′-(2-(1-(2-fluoro-4-((1S,2S)-6-hydroxy-2-phenyl-1,2,3,4-tetrahydronaphthalen-1-yl)-5-methoxyphenyl)piperidin-4-yl)ethyl)-5-methoxy-6-oxo-6,8-dihydro-2H,7H-spiro[furo[2,3-e]isoindole-3,4′-piperidin]-7-yl)piperidine-2,6-dione]	> 8.00	> 75%	< 1 nM
> 75%	COc1cc(N2CCC(CCN3CCN4c5cc6c(cc5OC[C@@H]4C3)C(=O)N([C@H]3CCC(=O)NC3=O)C6)CC2)c(F)cc1[C@@H]1c2ccc(O)cc2CC[C@@H]1c1ccccc1 [Compound A188, (S)-3-((S)-3-(2-(1-(2-fluoro-4-((1S,2S)-6-hydroxy-2-phenyl-1,2,3,4-tetrahydronaphthalen-1-yl)-5-methoxyphenyl)piper-idin-4-yl)ethyl)-8-oxo-1,2,3,4,4a,5,8,10-octahydro-9H-pyr-azino[1′,2′:4,5][1,4]oxazino [2,3-f]isoindol-9-yl)piperidine-2,6-dione]	7.00 to 8.00	–	< 1 nM
–	COc1c([C@@H]2c3ccc(O)cc3CC[C@@H]2c2ccccc2)ccc(N2CCC3(CC2)CC(CN2CCC4(CC2)COc2cc5c(cc24)CN([C@H]2CCC(=O)NC2=O)C5=O)C3)c1F [Compound A199, (S)-3-(1′-((7-(2-fluoro-4-((1S, 2S)-6-hydroxy-2-phenyl-1,2,3,4-tetrahydronaphthalen-1-yl)-3-methoxyphenyl)-7-aza-spiro[3.5]nonan-2-yl)methyl)-7-oxo-5,7-dihydro-2H,6H-spiro[furo[2,3-f]isoindole-3,4′-piperidin]-6-yl)piperidine-2,6-dione]	> 8.00	50 to 75%	< 1 nM
–	COc1cc(N2CC3(CC(CN4CCC5(CC4)COc4c5ccc5c4CN([C@H]4CCC(=O)NC4=O)C5=O)C3)C2)c(F)cc1[C@@H]1c2ccc(O)cc2CC[C@@H]1c1ccccc1 [Compound A184, (S)-3-(1′-((2-(2-fluoro-4-((1S, 2S)-6-hydroxy-2-phenyl-1,2,3,4-tetrahydronaphthalen-1-yl)-5-methoxyphenyl)-2-aza-spiro[3.3]heptan-6-yl)methyl)-6-oxo-6,8-dihydro-2H,7H-spiro[furo[2,3-e]isoindole-3,4′-piperidin]-7-yl)piperidine-2,6-dione]	< 7.00	50 to 75%	–
–	COc1cc2c(c3c1C(=O)N([C@H]1CCC(=O)NC1=O)C3)OCC21CCN(C[C@H]2CCC3(CCN(c4ccc([C@@H]5c6ccc(O)cc6CC[C@@H]5c5ccccc5)cc4)CC3)OC2)CC1 [Compound A235, (S)-3-(1′-(((R)-9-(4-((1R,2S)-6-hydroxy-2-phenyl-1,2,3,4-tetrahydronaphthalen-1-yl)phenyl)-1-oxa-9-azaspiro[5.5]undecan-3-yl)methyl)-5-methoxy-6-oxo-6,8-dihydro-2H,7H-spiro[furo[2,3-e]isoindole-3,4′-piperidin]-7-yl)piperidine-2,6-dione]	> 8.00	> 75%	< 1 nM
> 75%	COC1(CCN2CCN3c4ccc5c(c4OC[C@H]3C2)CN([C@H]2CCC(=O)NC2=O)C5=O)CCN(c2ccc([C@@H]3c4ccc(O)cc4CC[C@@H]3c3ccccc3)cc2)CC1 [Compound A192, (S)-3-((R)-7-(2-(1-(4-((1R,2S)-6-hydroxy-2-phenyl-1,2,3,4-tetrahydronaphthalen-1-yl)-phenyl)-4-methoxypiperidin-4-yl)cthyl)-1-oxo-1,3,5,5a,6,7,8,9-octahydro-2H-pyrazino[1′,2′: 4,5][1,4]oxazino[2,3-e]isoindol-2-yl)piperidine-2,6-dione]	< 7.00	–	< 1 nM
–	O=C1CC[C@H](N2Cc3c4c(cc(Cl)c3C2=O)C2(CCN(C[C@H]3CCC5(CCN(c6ccc([C@@H]7c8ccc(O)cc8CC[C@@H]7c7ccccc7)cc6)CC5)OC3)CC2)CO4)C(=O)N1 [Compound A231, (S)-3-(5-chloro-1′-(((R)-9-(4-((1R,2S)-6-hydroxy-2-phenyl-1,2,3,4-tetrahydronaphthalen-1-yl)phenyl)-1-oxa-9-azaspiro[5.5]undecan-3-yl)methyl)-6-oxo-6,8-dihydro-2H,7H-spiro[furo[2,3-e]isoindole-3,4′-pipcridin]-7-yl)piperidine-2,6-dione]	> 8.00	> 75%	< 1 nM
–	COc1cc(N2CCC3(CC2)CC(CN2CCC4(CC2)COc2c4cc(C)c4c2CN([C@H]2CCC(=O)NC2=O)C4=O)C3)c(F)cc1[C@@H]1c2ccc(O)cc2CC[C@@H]1c1ccccc1 [Compound A203, (S)-3-(1′-((7-(2-fluoro-4-((1S,2S)-6-hydroxy-2-phenyl-1,2,3,4-tetrahydronaphthalen-1-yl)-5-methoxyphenyl)-7-azaspiro[3.5]nonan-2-yl)methyl)-5-methyl-6-oxo-6,8-dihydro-2H,7H-spiro[furo[2,3-e]isoindole-3,4′-piperidin]-7-yl)piperidine-2,6-dione]	> 8.00	> 75%	< 1 nM
–	COc1c([C@@H]2c3ccc(O)cc3CC[C@@H]2c2ccccc2)ccc(N2CCC3(CC2)CC(CN2CCC4(CC2)COc2c4ccc4c2CN([C@H]2CCC(=O)NC2=O)C4=O)C3)c1F [Compound A198, (S)-3-(1′-((7-(2-fluoro-4-((1S, 2S)-6-hydroxy-2-phenyl-1,2,3,4-tetrahydronaphthalen-1-yl)-3-methoxyphenyl)-7-aza-spiro[3.5]nonan-2-yl)methyl)-6-oxo-6,8-dihydro-2H,7H-spiro[furo[2,3-e]isoindole-3,4′-piperidin]-7-yl)piperidine-2,6-dione]	7.00 to 8.00	50 to 75%	< 1 nM
> 75%	COc1cc(N2CCC(CCN3CCN4c5ccc6c(c5OC[C@H]4C3)CN([C@H]3CCC(=O)NC3=O)C6=O)CC2)c(F)cc1[C@@H]1c2ccc(O)cc2CC[C@@H]1c1ccccc1 [Compound A180, (S)-3-((R)-7-(2-(1-(2-fluoro-4-((1S,2S)-6-hydroxy-2-phenyl-1,2,3,4-tetrahydronaphthalen-1-yl)-5-methoxyphenyl)piper-idin-4-yl)ethyl)-1-oxo-1,3,5,5a, 6,7,8,9-octahydro-2H-pyrazino [1′,2′:4,5][1,4]oxazino[2,3-e]isoindol-2-yl)piperidine-2,6-dione]	< 7.00	–	< 1 nM
–	COc1cc(N2CCC(CCN3CCC4(CC3)COc3cc5c(cc34)CN([C@H]3CCC(=O)NC3=O)C5=O)CC2)c(F)cc1[C@@H]1c2ccc(O)cc2CC[C@@H]1c1ccccc1 [Compound A189, (S)-3-(1′-(2-(1-(2-fluoro-4-((1S,2S)-6-hydroxy-2-phenyl-1,2,3,4-tetrahydronaphthalen-1-yl)-5-methoxyphenyl)piper-idin-4-yl)ethyl)-7-oxo-5,7-dihydro-2H,6H-spiro[furo[2,3-f]isoindole-3,4′-piperidin]-6-yl)piperidine-2,6-dione]	7.00 to 8.00	> 75%	< 1 nM
–	COc1cc(N2CC(CCN3CCC4(CC3)COc3c4ccc4c3CN([C@H]3CCC(=O)NC3=O)C4=O)C2)c(F)cc1[C@@H]1c2ccc(O)cc2CC[C@@H]1c1ccccc1 [Compound A206, (S)-3-(1′-(2-(1-(2-fluoro-4-((1S,2S)-6-hydroxy-2-phenyl-1,2,3,4-tetrahydronaphthalen-1-yl)-5-methoxyphenyl)azet-idin-3-yl)ethyl)-6-oxo-6,8-dihydro-2H,7H-spiro[furo[2,3-e]isoindole-3,4′-piperidin]-7-yl)piperidine-2,6-dione]	< 7.00	50 to 75%	1 to 10 nM
–	COc1cc(N2CCC3(CC2)C[C@H](CN2CCC4(CC2)COc2c4cc(C)c4c2CN([C@H]2CCC(=O)NC2=O)C4=O)CO3)c(F)cc1[C@@H]1c2ccc(O)cc2CC[C@@H]1c1ccccc1 [Compound A208, (3S)-3-[1′-[[(3R)-8-[2-fluoro-4-[(1S,2S)-6-hydroxy-2-phenyl-tetralin-1-yl]-5-methoxy-phenyl]-1-oxa-8-azaspiro[4.5]decan-3-yl]methyl]-5-methyl-6-oxo-spiro[2,8-dihydrofuro[2,3-e]isoindole-3,4′-piperidine]-7-yl]piperidine-2,6-dione]	7.00 to 8.00	–	–
